“Also recorded” adds a separate entry of the source.
Legend:
[1] = tested on: fentanyl-induced respiratory depression; assay: Fentanyl-induced respiratory depression model to assess restoration of ventilatory control; format: in vivo, Sprague-Dawley male rats; settings: rats; for restoration of ventilatory control / reversing the fentanyl-induced respiratory depression: fentanyl 75 to 150 micrograms per kilogram, intravenous infusion
[2] = cited from earlier work
apnea episodes = settings: cited from earlier work

## O=C(O)CCCCN[C@@H](CS)C(=O)O [GLN 10,013]
[1]
  restoration of ventilatory control / reversing the fentanyl-induced respiratory depression: successfully restores ventilatory control
[1]; fentanyl-induced, acute phase (0 to 5 minutes)
  reversal of respiratory depression, acute phase: reverse respiratory depression
[1]; fentanyl-induced, chronic phases (10 to 50 minutes)
  reversal of respiratory depression, chronic phases: reverse respiratory depression

## O=C(O)CNC(=O)[C@H](CS)Nc1nccs1 [GLN 10,015]
[1]
  restoration of ventilatory control / reversing the fentanyl-induced respiratory depression: not be effective; also recorded: does not restore

## CC(=O)N[C@@H](CS)C(=O)O [N-acetyl-L-cysteine]
[2]
  absorption after oral administration: poorly absorbed
[2]; oral administration, destroys most of the parent drug
  first pass metabolism by the liver: extensive first pass metabolism

## CC(=O)Nc1nnc(S(N)(=O)=O)s1 [acetazolamide]
Apnea episodes; central apnea patients, low doses, after one month of treatment (25.5 pre-treatment)
  apnea episodes after treatment: 6.8
Apnea episodes; central apnea patients, low doses, after one month of treatment
  decrease in apnea episodes: 73%
Apnea episodes; patients that had predominantly obstructive sleep apnea
  reduction in apnea episodes: about 25%

Reference: US20100105685A1, “S-Nitrosothiol Compounds and Related Derivatives” (Galleon Pharmaceuticals, Inc., priority 2006, published 2010)
